Results as given in the supplement of paper PMC10011410.
± gives the standard deviation of the averaged measurements.

Experiments:
U-2 OS [1] = assay: cell painting activity score (Mahalanobis distance from DMSO wells); higher = stronger morphological phenotype; conditions: 24 h
Experimental: (§1)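 Cell painting in U-2 OS cells (384-well, about 1,500 cells per well), compound exposure 24 h, usually six 2-fold concentrations from 20 to 0.625 uM (some compounds higher or lower). Relative cell count is the cell number per well relative to DMSO wells. Activity score is the Mahalanobis distance of the morphological profile from DMSO control wells. Mean of four technical replicate plates.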

U-2 OS [2] = assay: relative cell count vs DMSO (cell painting) (fraction of DMSO control); higher = more cells remaining (less cytotoxic); conditions: 24 h
Experimental: as §1

U-2 OS [3] = assay: AUC of culture confluence over time (live-cell imaging) (AUC (confluence % x time)); higher = more confluent culture (less growth inhibition)
Experimental: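 Live-cell Incucyte imaging of U-2 OS cells in F-12K medium. Compounds were tested mostly at 5, 10 and 20 uM, and cells were imaged every 4 h for up to 60 h. Value is the area under the curve of phase-contrast confluence over time.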

Compound	cell painting activity score (U-2 OS [1]; 0.625 µM)	cell painting activity score (U-2 OS [1]; 1.25 µM)	cell painting activity score (U-2 OS [1]; 2.5 µM)	cell painting activity score (U-2 OS [1]; 5 µM)	cell painting activity score (U-2 OS [1]; 10 µM)	cell painting activity score (U-2 OS [1]; 20 µM)	relative cell count (U-2 OS [2]; 0.625 µM)	relative cell count (U-2 OS [2]; 1.25 µM)	relative cell count (U-2 OS [2]; 2.5 µM)	relative cell count (U-2 OS [2]; 5 µM)	relative cell count (U-2 OS [2]; 10 µM)	relative cell count (U-2 OS [2]; 20 µM)	AUC of culture confluence over time (U-2 OS [3]; 5 µM)	AUC of culture confluence over time (U-2 OS [3]; 10 µM)	AUC of culture confluence over time (U-2 OS [3]; 20 µM)	cell painting activity score (U-2 OS [1]; 0.019532 µM)	cell painting activity score (U-2 OS [1]; 0.07812 µM)	cell painting activity score (U-2 OS [1]; 0.3124 µM)	relative cell count (U-2 OS [2]; 0.019532 µM)	relative cell count (U-2 OS [2]; 0.07812 µM)	relative cell count (U-2 OS [2]; 0.3124 µM)	AUC of culture confluence over time (U-2 OS [3]; 1.25 µM)	cell painting activity score (U-2 OS [1]; 0.3126 µM)	relative cell count (U-2 OS [2]; 0.3126 µM)
CC1(C)[C@@H](O[C@H]2O[C@H](C(=O)O)[C@@H](O)[C@H](O)[C@H]2O[C@@H]2O[C@H](C(=O)O)[C@@H](O)[C@H](O)[C@H]2O)CC[C@]2(C)[C@H]3C(=O)C=C4[C@@H]5C[C@@](C)(C(=O)O)CC[C@]5(C)CC[C@@]4(C)[C@]3(C)CC[C@@H]12.N	4.09	5.25	5.85	3.67	3.06	3.66	1	0.993	0.972	0.982	1	1.03	50.8	48.2	51									
CCOC(=O)C1=C(C)NC(=S)N[C@@H]1c1cccc(O)c1	4.88	4.81	5.49	5.58	4.56	4.64	0.936	0.94	1.01	0.941	0.954	0.999	48.6	50.3	44.1									
Cc1csc(=NC2CCCCC2)n1/N=C/c1ccc(O)c(O)c1O	6.78	7.67	6	5.67	5.75	7.13	1.01	1.01	0.985	1	1.02	0.405	49.7	53.9	40.5									
CC(C)(N=NC(C)(C)C(=N)N)C(=N)N.Cl.Cl	5.15	4.98	5.89	7.2	8.42	9.74	1.01	0.966	0.949	1.01	0.975	0.977	49.5	48.3	46.6									
Cl.Nc1ccc(O)c2ccccc12	8.19	6.08	9.4	14.3	15.3	30.8	0.931	0.895	0.888	0.75	0.623	0.09	31.2	23.5	18									
CCc1c2c(nc3ccc(OC(=O)N4CCC(N5CCCCC5)CC4)cc13)-c1cc3c(c(=O)n1C2)COC(=O)[C@]3(O)CC.Cl	7.03	8.8	9.65	10.7	11	11.2	0.924	0.783	0.705	0.614	0.554	0.566	31.5	25.7	22									
CC[C@@]1(O)C(=O)OCc2c1cc1n(c2=O)Cc2cc3ccccc3nc2-1		12.4 ± 0.52		13.7 ± 0.32		15.5 ± 0.56		0.476 ± 0.059		0.379 ± 0.037		0.351 ± 0.028	19.7		21.5	7.71 ± 3.2	9.83 ± 1.2	10.3 ± 0.47	0.694 ± 0.18	0.516 ± 0.026	0.503 ± 0.036	19.5		
C=C1[C@@H](C)[C@H]2[C@H](Cc3ccccc3)NC(=O)[C@]23OC(=O)/C=C/[C@H](O)CCC[C@@H](C)C/C=C/[C@H]3[C@@H]1O	9.61	11.2	9.71	10.7	12	16.1	0.968	0.954	0.865	0.715	0.722	0.667	29	26.1	26.1									
C=C(C)[C@H]1Cc2c(ccc3c2O[C@@H]2COc4cc(OC)c(OC)cc4[C@@H]2C3=O)O1	10.4	11.4	15.6	15.6	15.4	15.4	0.719	0.643	0.485	0.349	0.311	0.332	15	17.9	21.1									
O=C(c1ccc(/C=C/c2n[nH]c3ccccc23)cc1)N1CCNCC1	9.05	12	17.9	19.2	18.8	18.8	1.02	0.914	0.649	0.572	0.532	0.526	28.9	32.6	26.8									
O=C1c2ccccc2[Se](=O)N1c1ccccc1 (configuration not stated)	5.57	10.4	15.8	17	15.8	13.8	0.985	0.943	0.991	0.954	0.805	0.111	31.5	18.8	18.2									
CNc1nc(-c2ccccc2)[n+](-c2ccccc2)s1	2.89	2.97	3.6	3.74	6.88	14.5	1	1.03	0.994	0.992	0.516	0.0974	36	44.4	42.5									
O=C(O)CCCc1ccc(N(CCCl)CCCl)cc1	4.38	5.9	8	10.4	10.8	12.6	0.967	0.951	0.908	0.881	0.837	0.784	50.2	44.6	36.8									
CC1(C)CC[C@]2(C(=O)O[C@@H]3O[C@H](CO)[C@@H](O)[C@H](O)[C@H]3O)CC[C@]3(C)C(=CC[C@@H]4[C@@]5(C)CC[C@H](O[C@@H]6O[C@H](C(=O)O)[C@@H](O)[C@H](O)[C@H]6O[C@@H]6O[C@H](CO)[C@@H](O)[C@H](O)[C@H]6O)C(C)(C)[C@@H]5CC[C@]43C)[C@@H]2C1	4.68	4.76	5.42	5.24	6.27	9.37	0.971	0.973	0.949	0.938	0.915	0.964	54.4	51.1	57.6									
Oc1cc(O)cc(/C=C/c2ccc(O)c(O)c2)c1	3.37	3.39	4.93	8.04	10.9	13.7	1.06	1.01	0.995	0.951	0.958	0.886	49.3	53.9	45.4									
O=C(O)C[C@@H]1C(=O)O[C@H]2[C@@H]3OC(=O)c4cc(O)c(O)c(O)c4-c4c(cc(O)c(O)c4O)C(=O)OC[C@H]2O[C@@H](OC(=O)c2cc(O)c(O)c(O)c2)[C@@H]3OC(=O)c2cc(O)c(O)c3c2[C@H]1[C@H](O)C(=O)O3	3.42	3.94	4.16	5.6	5.3	8.86	1.01	1	1.06	1.04	1.05	1.05	45.6	45.4	41.8									
Oc1ccc(/C=C/c2cc(O)cc(O)c2)cc1													49	46.4	42.5									
O=C1C=C(Cl)C(=O)c2ccccc21	7.9	18.1	19.4	17.9	22.2	25.4	0.745	0.492	0.216	0.29	0.169	0.267												
Oc1ccc(/C=C\c2cc(O)cc(O)c2)cc1													42.1	46.9	39.8									
CN[C@@H]1C[C@H]2O[C@@](C)([C@@H]1OC)n1c3ccccc3c3c4c(c5c6ccccc6n2c5c31)C(=O)NC4		24.2 ± 2.7		25.5 ± 2.6		24.1 ± 2		0.095 ± 0.0065		0.127 ± 0.042		0.128 ± 0.039				16.8 ± 1.3	19.8 ± 1.5	21.2	0.757 ± 0.098	0.467 ± 0.25	0.294		25.8 ± 2.3	0.0507 ± 0.0014
